Test results reported in patent US7220732B2, “Compounds useful as photodynamic therapeutic agents” (priority 2002, dated 2007).
Like-named read-outs stand apart in the source and are kept apart here.

Experiments:
Format in all cases: cell-based
[1] = tested on: HeLa cells; assay: Fluorescence microscopy uptake study in HeLa cells; settings: 10^−5 M, water/Cremophor
Experimental: Cells were seeded at a density of 30,000 cells/well in chamber slides and allowed to adhere for 24 hr. A compound of the present invention (10^−5 M) was then added to each chamber and incubated at 37° C. in the dark over time, for example, 15 min, 30 min, 1 hr, 3 hr and 6 hr. The medium was removed after the specified time and the cells were washed 4 times with medium free of that compound of the invention. The cells were then fixed with 3.7% (v/v) formaldehyde for 15 min at 37° C. The fixative solution was removed and the cells were washed twice with sterile PBS. DAPI nuclear stain (1/1000) was then incubated with the cells for 10 is min at 37° C., following which the cells were washed twice with PBS. Cells were then mounted in Vectashield (Trade Mark) mounting medium.
LabWorks (Bioimaging Systems) was used to calculate the average fluorescence intensity per cell for each of the different time points used in the uptake and efflux studies for the compounds of the present invention. […] The DAPI filter was used to accurately count the number of cells in each field of view and the rhodamine filter was used to quantify the fluorescence of the compounds of the present invention. […]
Using the assay method set out above under the heading “Fluorescence Microscopy”, the uptake of 2a was examined for HeLa and MRC5 […] cell lines and the data are illustrated in FIGS. 6a and 6b, respectively. […]

[2] = Confocal microscopy subcellular localisation; settings: FIGS. 17–19
Experimental: Cells were seeded at a density of 30,000 cells/well in chamber slides and allowed to adhere for 24 hr. 2a (10^−5 M) was then added to each chamber and incubated at 37° C. in the dark for either 1 hr or 3 hrs at 37° C.—a one hour incubation was used for FIGS. 4 and 5. The medium was removed and the cells were washed 4 times with drug-free (2a free) medium. The cells were then fixed with 3.7% (v/v) formaldehyde for 15 min at 37° C. The fixative solution was removed and the cells were washed twice with sterile PBS. DAPI (4′,6-diamidino-2-phenylindole) nuclear stain (1/1000) was then incubated with the cells for 10 min at 37° C., following which the cells were washed twice with PBS. Cells were then mounted in Vectashield (Trade Mark) mounting medium.
The cells were viewed using a Leica TCSSL Confocal Laser Scanning microscope (the LSM510 META Confocal Microscope was used to visualise DAPI and 2a simultaneously).
These could be lysosomes which have a typical size range of 0.2–2 μm; peroxisomes which have a typical size range of 0.5–1.5 μm; or endosomes which have a typical size range of 0.2–2 μm. It will be appreciated that localisation of the photosensitising compounds of the invention in different subcellular sites may impact on how effective the photodynamic therapy may be.

[3] = tested on: HeLa cells; assay: Light/dark cytotoxicity study (MTT) in HeLa cells
Experimental: MRC5 and HeLa cell cultures were maintained in MEM (minimum essential medium) containing 10% (v/v) foetal calf serum (FCS), 1% (v/v) non-essential amino acids, 2 μg/ml Fungizone (Trade Mark) (amphotericin B), 50 μg/ml penicillin, 50 μg/ml streptomycin, 20 mM HEPES and 1% (v/v) L-Glutamine. Cells were passaged at least twice before use in the cytotoxicity assays.
Stock haematoporphyrin water-dimethyl sulphoxide (DMSO) (100:1 (v/v)) solutions were diluted with MEM containing 10% FCS. Cells were seeded at 5,000 cells/well in 96-well plates and incubated for 24 hr at 37° C. The 24 hour incubation period was chosen having regard to the slower uptake of haernatoporphyrin in the absence of Cremophor, when compared to the compounds of the present invention in the presence of Cremophor (see below). Cells were then incubated with haematoporphyrin in the dark for 24 hr at 37° C. The haematoporphyrin laden culture medium was then removed by filtration, the cells were washed with PBS and fresh culture medium was added to each well. A 500 W light source, passed through a red glass and water filter barrier, (to ensure cells are irradiated with light of wavelength greater than 570 nm) was used to irradiate the plates for both 15 and 30 min. Following irradiation, the cells were incubated for a further 48 hr at 37° C. before being assessed for cell survival.
Stock 2a or 2b water-Cremophor EL (Trade Mark—CAS 61791-12-6) (1:250 (v/v)) solutions were diluted with MEM containing 10% FCS. Cells were seeded at 5,000 cells/well in 96-well plates and incubated for 24 hr at 37° C. Cells were then incubated with 2a or 2b in the dark for 3 hr at 37° C. The 3 hour incubation period was chosen to reflect the faster cellular uptake of 2a or 2b in the presence of Cremophor, when compared to the cellular uptake of haematoporphyrins in the absence of Cremophor. The 2a or 2b laden culture medium was then removed by filtration, the cells were washed with PBS and fresh culture medium was added to each well. The plates were then irradiated using a 500 W light source passed through a red glass and water filter barrier, (thereby ensuring cells are irradiated with light of wavelength greater than 570 nm) for both 15 and 30 min.
Following irradiation, the cells were incubated for a further 48 hr at 37° C. before being assessed for cell survival. The dark toxicity of compounds of the present invention was also assessed in each experiment.
Cell viability was estimated using the standard MTT (microtiter tetrazolium) assay. This assay measures mitochondrial dehydrogenase activity and is based on the reduction of a soluble yellow tetrazolium salt to a blue, insoluble MTT formazan product by this enzyme. The subsequent colour change produced by viable cells was quantified using a plate reader (VICTOR^2 1420 multilabel HTS counter, Wallac). As mentioned above under the headings “Cytotoxicity”, the cells are incubated at 37° C. for 48 hours, following which the MTT solution was added to the cells at a final concentration of 0.5 mg/ml and incubated for 3 hr at 37° C. The MTT solution was then removed by filtration and 100 μl DMSO was added to each well in order to lyse the cells and release the formazan dye. The plates were read 1 hr later at 540 nm.
Prism (Trade Mark) […] was used to graph the data obtained from the MTT assays and the uptake/efflux experiments. This programme allows non-linear regression analysis and the generation of sigmoidal dose response curves. Prism (Trade Mark) also automatically calculates EC50 values.
Light toxicity assays were also carried out as described above under “Assay methods” in HeLa and MRC5 cells for haematoporphyrin (FIGS. 9 and 10), 2a (FIGS. 11 and 12) and 2b (FIGS. 13 and 14).

F[B-]1(F)n2c(-c3ccccc3)cc(-c3ccccc3)c2N=C2C(c3ccccc3)=CC(c3ccccc3)=[N+]21 [Compound 2a]
time of maximum uptake [1]: 300 min | cellular localisation [2]: both diffuse and punctuated cytoplasmic localisation | EC50 ([3]; 0 J/cm^2 light (no light), read-out: EC50 (dark toxicity)): 23 µM | EC50 ([3]; 8 J/cm^2 light (15 mins from a 500 W light source), read-out: EC50): 4.5 µM | EC50 ([3]; 16 J/cm^2 light (30 mins from a 500 W light source), read-out: EC50): 1.3 µM
